Experimental data from patent publication US8252846B2, “Strategies for delivery of active agents using micelles and particles” (priority 2005, dated 2012).

Experiments:
serum nucleases = experiment: Protection of ISS-DNA from serum nucleases (gel electrophoresis); type: in vitro ADME; conditions: 10% serum, 12 hours
Method: The stimuli responsive release of peptides from the PCMs due to the presence of GSH was investigated to determine if the PCMs will release peptide antigens after phagocytosis. The PCMs were incubated with different concentrations of GSH, for 24 hours in 50 mM pH 7.4 PBS buffer, and then analyzed by HPLC to determine the release of peptides. […] Incubation of the PCMs with 10 mM GSH (intracellular levels) induces the release of 71% of peptide, whereas incubation of the PCMs with just buffer causes the release of only 10% of peptides. B. GSH sensitive DNA release. The ability of the PCMs to protect encapsulated ISS-DNA from degradation by serum nucleases was investigated. PCMs were synthesized (as described above) and incubated with 10% serum for 12 hours, these PCMs were then examined by gel electrophoresis to determine the stability of the encapsulated ISS-DNA. As a control, ISS-DNA by itself was incubated with serum. […] C. […] A key advantage of the PCM strategy is that it generates a crosslinked delivery system. This crosslinking should stabilize the PCMs in vivo. The stability of the PCMs to decomposition was investigated by mixing the negatively charged polymer, poly(vinyl sulfate) (PVS) with the PCMs, this mixture was then analyzed by gel electrophoresis to determine the quantity of ISS-DNA displaced by the PVS. […]

[1] = cited from earlier work
[2] = Hydrolysis of polyketal copolymers in buffered water (1H NMR); type: physicochemical; conditions: buffer
Method: The molecular weight of the polyketal copolymers was determined by gel permeation chromatography (GPC) using a Shimadzu system (Kyoto, Japan) equipped with a UV detector. THF was used as the mobile phase at a flow rate of 1 mL/min. Polystyrene standards (Peak Mw=1060, 2970, and 10680) from Polymer Laboratories (Amherst, Mass.) were used to establish a molecular weight calibration curve. The hydrolysis of the polyketal copolymers was measured in buffered water at pH values of 1.0 (0.1M HCL), 4.5 (100 mM AcOH) and 7.4 (100 mM) at 37° C. Briefly, 20 mg of the polymer samples were placed in a 5 ml vial, 1 mL of buffer solution was added to each vial, and mixed with a magnetic stir bar. At specific time points, 1 mL of CDCl3 was added to each vial and shaken vigorously, the CDCl3 phase was isolated and analyzed by ^1H NMR, to determine the percent hydrolysis the of ketal linkages in polyketal copolymer.

Molecule	Log P of diol [1]	Estimated half life at pH 7.4 ([2]; pH 7.4) [days]	Half life at pH 4.5 [2] [days]	other results
5-TCCATGACGTTCCTGACGTT-3 [ISS-DNA]	–	–	–	Stability of ISS-DNA to serum nucleases (serum nucleases): completely hydrolyzed
OCC1CCC(CO)CC1 (stereo not drawn) [1,4-cyclohexanedimethanol]	1.46	–	–	–
OCCCCCCCCO [1,8-octanediol]	1.75	–	–	–
poly(cyclohexane-1,4-diyl acetone dimethylene ketal-co-1,5-pentane-acetone dimethylene ketal [PK3]	–	39	–	Hydrolysis half life at pH 7.4 (in words) ([2]; pH 7.4): several weeks
poly(cyclohexane-1,4-diyl acetone dimethylene ketal-co-1,6-hexane-acetone dimethylene ketal) [PK5]	–	53	4.4	–
poly(cyclohexane-1,4-diyl acetone dimethylene ketal-co-1,8-octane-acetone dimethylene ketal) [PK6]	–	360	18.6	–
